Test results from publication PMC6100082, “Pyridine-Ureas as Potential Anticancer Agents: Synthesis and In Vitro Biological Evaluation” (Molecules : A Journal of Synthetic Chemistry and Natural …, 2018).

Tests used:
Type in all cases: cell-based, human
[1] = system: 786-0; assay: NCI one-dose SRB assay (Renal Cancer); settings: for Growth Percent: 786-0, 1.00E-5 Molar; for inhibition at 10 µM: Homo sapiens, 786-0, 10 μM, read-out: Percentage growth inhibition (GI%)
Procedure, shortened: (§1)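 Human cancer cells are exposed for 48 h to one dose (10^−5 M) of test compound, then cell growth is measured by SRB protein assay. Data appear as GI%.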

[2] = system: SN12C; assay: NCI one-dose SRB assay (Renal Cancer); settings: for Growth Percent: 1.00E-5 Molar; for inhibition at 10 µM: Homo sapiens, read-out: Percentage growth inhibition (GI%)
Procedure, shortened: as §1

[3] = system: RXF 393; assay: NCI one-dose SRB assay (Renal Cancer); settings: for inhibition at 10 µM: Homo sapiens, RXF 393, 10 μM, read-out: Percentage growth inhibition (GI%); for Growth Percent: RXF 393, 1.00E-5 Molar
Procedure, shortened: as §1

[4] = system: UO-31; assay: NCI one-dose SRB assay (Renal Cancer); settings: for inhibition at 10 µM: Homo sapiens, UO-31, 10 μM, read-out: Percentage growth inhibition (GI%); for Growth Percent: UO-31, 1.00E-5 Molar
Procedure, shortened: as §1

[5] = system: TK-10; assay: NCI one-dose SRB assay (Renal Cancer); settings: for inhibition at 10 µM: Homo sapiens, TK-10, 10 μM, read-out: Percentage growth inhibition (GI%); for Growth Percent: TK-10, 1.00E-5 Molar
Procedure, shortened: as §1

[6] = system: A498; assay: NCI one-dose SRB assay (Renal Cancer); settings: for Growth Percent: A498, 1.00E-5 Molar; for inhibition at 10 µM: Homo sapiens, A498, 10 μM, read-out: Percentage growth inhibition (GI%)
Procedure, shortened: as §1

[7] = system: CCRF-CEM; assay: NCI one-dose SRB assay (Leukemia); settings: for Growth Percent: 1.00E-5 Molar; for inhibition at 10 µM: Homo sapiens, read-out: Percentage growth inhibition (GI%)
Procedure, shortened: as §1

[8] = system: K-562; assay: NCI one-dose SRB assay (Leukemia); settings: for inhibition at 10 µM: Homo sapiens, K562, K-562, 10 μM, read-out: Percentage growth inhibition (GI%); for Growth Percent: K-562, 1.00E-5 Molar
Procedure, shortened: as §1

[9] = system: SR; assay: NCI one-dose SRB assay (Leukemia); settings: for Growth Percent: 1.00E-5 Molar; for inhibition at 10 µM: Homo sapiens, read-out: Percentage growth inhibition (GI%)
Procedure, shortened: as §1

[10] = system: SF-268; assay: NCI one-dose SRB assay (CNS Cancer); settings: for inhibition at 10 µM: Homo sapiens, SF-268, 10 μM, read-out: Percentage growth inhibition (GI%); for Growth Percent: SF-268, 1.00E-5 Molar
Procedure, shortened: as §1

[11] = system: MALME-3M; assay: NCI one-dose SRB assay (Melanoma); settings: for Growth Percent: 1.00E-5 Molar; for inhibition at 10 µM: Homo sapiens, read-out: Percentage growth inhibition (GI%)
Procedure, shortened: as §1

[12] = system: SK-MEL-2; assay: NCI one-dose SRB assay (Melanoma); settings: for inhibition at 10 µM: Homo sapiens, SK-MEL-2, 10 μM, read-out: Percentage growth inhibition (GI%); for Growth Percent: SK-MEL-2, 1.00E-5 Molar
Procedure, shortened: as §1

[13] = system: SK-MEL-28; assay: NCI one-dose SRB assay (Melanoma); settings: for inhibition at 10 µM: Homo sapiens, SK-MEL-28, 10 μM, read-out: Percentage growth inhibition (GI%); for Growth Percent: SK-MEL-28, 1.00E-5 Molar
Procedure, shortened: as §1

[14] = system: UACC-257; assay: NCI one-dose SRB assay (Melanoma); settings: for inhibition at 10 µM: Homo sapiens, UACC-257, 10 μM, read-out: Percentage growth inhibition (GI%); for Growth Percent: UACC-257, 1.00E-5 Molar
Procedure, shortened: as §1

[15] = system: UACC-62; assay: NCI one-dose SRB assay (Melanoma); settings: for inhibition at 10 µM: Homo sapiens, UACC-62, 10 μM, read-out: Percentage growth inhibition (GI%); for Growth Percent: UACC-62, 1.00E-5 Molar
Procedure, shortened: as §1

[16] = system: MDA-MB-435; assay: NCI one-dose SRB assay (Melanoma); settings: for inhibition at 10 µM: Homo sapiens, MDA-MB-435, 10 μM, read-out: Percentage growth inhibition (GI%); for Growth Percent: MDA-MB-435, 1.00E-5 Molar
Procedure, shortened: as §1

[17] = system: M14; assay: NCI one-dose SRB assay (Melanoma); settings: for inhibition at 10 µM: Homo sapiens, M14, 10 μM, read-out: Percentage growth inhibition (GI%); for Growth Percent: M14, 1.00E-5 Molar
Procedure, shortened: as §1

[18] = system: LOX IMVI; assay: NCI one-dose SRB assay (Melanoma); settings: for Growth Percent: 1.00E-5 Molar; for inhibition at 10 µM: Homo sapiens, read-out: Percentage growth inhibition (GI%)
Procedure, shortened: as §1

[19] = system: SK-MEL-5; assay: NCI one-dose SRB assay (Melanoma); settings: for inhibition at 10 µM: Homo sapiens, SK-MEL-5, 10 μM, read-out: Percentage growth inhibition (GI%); for Growth Percent: SK-MEL-5, 1.00E-5 Molar
Procedure, shortened: as §1

[20] = system: HOP-62; assay: NCI one-dose SRB assay (Non-Small Cell Lung Cancer); settings: for Growth Percent: HOP-62, 1.00E-5 Molar; for inhibition at 10 µM: Homo sapiens, HOP-62, 10 μM, read-out: Percentage growth inhibition (GI%)
Procedure, shortened: as §1

[21] = system: NCI-H23; assay: as above; settings: for inhibition at 10 µM: Homo sapiens, NCI-H23, 10 μM, read-out: Percentage growth inhibition (GI%); for Growth Percent: NCI-H23, 1.00E-5 Molar
Procedure, shortened: as §1

[22] = system: NCI-H226; assay: as above; settings: for inhibition at 10 µM: Homo sapiens, NCI-H226, 10 μM, read-out: Percentage growth inhibition (GI%); for Growth Percent: NCI-H226, 1.00E-5 Molar
Procedure, shortened: as §1

[23] = system: A549/ATCC; assay: as above; settings: for Growth Percent: 1.00E-5 Molar; for inhibition at 10 µM: Homo sapiens, read-out: Percentage growth inhibition (GI%)
Procedure, shortened: as §1

[24] = system: NCI-H460; assay: as above; settings: for inhibition at 10 µM: Homo sapiens, NCI-H460, 10 μM, read-out: Percentage growth inhibition (GI%); for Growth Percent: NCI-H460, 1.00E-5 Molar
Procedure, shortened: as §1

[25] = system: NCI-H322M; assay: as above; settings: for Growth Percent: 1.00E-5 Molar; for inhibition at 10 µM: Homo sapiens, read-out: Percentage growth inhibition (GI%)
Procedure, shortened: as §1

[26] = system: EKVX; assay: as above; settings: for Growth Percent: 1.00E-5 Molar; for inhibition at 10 µM: Homo sapiens, read-out: Percentage growth inhibition (GI%)
Procedure, shortened: as §1

[27] = system: HOP-92; assay: as above; settings: for Growth Percent: HOP-92, 1.00E-5 Molar; for inhibition at 10 µM: Homo sapiens, HOP-92, 10 μM, read-out: Percentage growth inhibition (GI%)
Procedure, shortened: as §1

[28] = system: NCI-H522; assay: as above; settings: for inhibition at 10 µM: Homo sapiens, NCI-H522, 10 μM, read-out: Percentage growth inhibition (GI%); for Growth Percent: NCI-H522, 1.00E-5 Molar
Procedure, shortened: as §1

## COc1cccc(NC(=O)Nc2ccc(-c3ccc(OC)c(OC)c3)nc2C)c1 [Compound 8m, 1-(6-(3,4-Dimethoxyphenyl)-2-methylpyridin-3-yl)-3-(3-methoxyphenyl) Urea]
[1]
  Growth Percent: 92.27%
  inhibition at 10 µM: < 10%
[2]
  Growth Percent: 93.61%
  inhibition at 10 µM: < 10%
[3]
  inhibition at 10 µM: < 10%
  Growth Percent: 108.45%
[4]
  inhibition at 10 µM: 20%
  Growth Percent: 80.45%
[5]
  inhibition at 10 µM: < 10%
  Growth Percent: 96.16%
[6]
  Growth Percent: 85.18%
  inhibition at 10 µM: 15%
[7]
  Growth Percent: 89.11%
  inhibition at 10 µM: 11%
[8]
  inhibition at 10 µM: 22%
  Growth Percent: 78.49%
[9]
  Growth Percent: 82.12%
  inhibition at 10 µM: 18%
[10]
  inhibition at 10 µM: < 10%
  Growth Percent: 94.56%
[11]
  Growth Percent: 92.61%
  inhibition at 10 µM: < 10%
[12]
  inhibition at 10 µM: 13%
  Growth Percent: 87.95%
[13]
  inhibition at 10 µM: < 10%
  Growth Percent: 99.69%
[14]
  inhibition at 10 µM: < 10%
  Growth Percent: 97.19%
[15]
  inhibition at 10 µM: < 10%
  Growth Percent: 93.89%
[16]
  inhibition at 10 µM: < 10%
  Growth Percent: 100.45%
[17]
  inhibition at 10 µM: 10%
  Growth Percent: 90.93%
[18]
  Growth Percent: 92.56%
  inhibition at 10 µM: < 10%
[19]
  inhibition at 10 µM: 16%
  Growth Percent: 84.32%
[20]
  Growth Percent: 94.75%
  inhibition at 10 µM: < 10%
[21]
  inhibition at 10 µM: 10%
  Growth Percent: 90.97%
[22]
  inhibition at 10 µM: < 10%
  Growth Percent: 94.44%
[23]
  Growth Percent: 90.54%
  inhibition at 10 µM: 10%
[24]
  inhibition at 10 µM: < 10%
  Growth Percent: 102.12%
[25]
  Growth Percent: 95.22%
  inhibition at 10 µM: < 10%
[26]
  Growth Percent: 100.68%
  inhibition at 10 µM: < 10%
[27]
  Growth Percent: 81.00%
  inhibition at 10 µM: 19%
[28]
  inhibition at 10 µM: 47%
  Growth Percent: 53.07%

## COc1ccc(NC(=O)Nc2ccc(-c3ccc(OC)c(OC)c3)nc2C)cc1 [Compound 8n, 1-(6-(3,4-Dimethoxyphenyl)-2-methylpyridin-3-yl)-3-(4-methoxyphenyl) Urea]
[1]
  Growth Percent: 11.07%
  inhibition at 10 µM: 89%
[2]
  Growth Percent: 64.38%
  inhibition at 10 µM: 36%
[3]
  inhibition at 10 µM: 42%
  Growth Percent: 58.20%
[4]
  inhibition at 10 µM: 19%
  Growth Percent: 81.72%
[5]
  inhibition at 10 µM: 40%
  Growth Percent: 60.42%
[6]
  Growth Percent: 71.94%
  inhibition at 10 µM: 29%
[7]
  Growth Percent: 97.16%
  inhibition at 10 µM: < 10%
[8]
  inhibition at 10 µM: 27%
  Growth Percent: 73.25%
[9]
  Growth Percent: 57.29%
  inhibition at 10 µM: 43%
[10]
  inhibition at 10 µM: 41%
  Growth Percent: 59.25%
[11]
  Growth Percent: 44.12%
  inhibition at 10 µM: 56%
[12]
  inhibition at 10 µM: 21%
  Growth Percent: 79.55%
[13]
  inhibition at 10 µM: 14%
  Growth Percent: 86.76%
[14]
  inhibition at 10 µM: 45%
  Growth Percent: 55.47%
[15]
  inhibition at 10 µM: 41%
  Growth Percent: 59.87%
[16]
  inhibition at 10 µM: 35%
  Growth Percent: 65.17%
[17]
  inhibition at 10 µM: 28%
  Growth Percent: 72.14%
[18]
  Growth Percent: 88.83%
  inhibition at 10 µM: 12%
[19]
  inhibition at 10 µM: 78%
  Growth Percent: 22.98%
[20]
  Growth Percent: 56.53%
  inhibition at 10 µM: 44%
[21]
  inhibition at 10 µM: 33%
  Growth Percent: 67.43%
[22]
  inhibition at 10 µM: 42%
  Growth Percent: 58.04%
[23]
  Growth Percent: 57.02%
  inhibition at 10 µM: 43%
[24]
  inhibition at 10 µM: 83%
  Growth Percent: 17.58%
[25]
  Growth Percent: 86.96%
  inhibition at 10 µM: 14%
[26]
  Growth Percent: 91.15%
  inhibition at 10 µM: < 10%
[27]
  Growth Percent: 73.37%
  inhibition at 10 µM: 27%
[28]
  inhibition at 10 µM: 51%
  Growth Percent: 49.88%
